US20150094328A1, “4-Azaindole Derivatives” (Eisai R&D Management Co., Ltd., priority 2013, published 2015)

What was measured:
mAChR M1 = target: T1, mAChR M1 (UniProt P11229); assay: In vitro cellular calcium flux assay, positive allosteric modulator mode, mAChR M1; type: cell-based, human; conditions: PAM mode with EC20 carbachol, BHK cells expressing mAChR M1, Examples 76-80 and 82-89 tested in slightly modified procedure
T1 sequence (P11229 1-460): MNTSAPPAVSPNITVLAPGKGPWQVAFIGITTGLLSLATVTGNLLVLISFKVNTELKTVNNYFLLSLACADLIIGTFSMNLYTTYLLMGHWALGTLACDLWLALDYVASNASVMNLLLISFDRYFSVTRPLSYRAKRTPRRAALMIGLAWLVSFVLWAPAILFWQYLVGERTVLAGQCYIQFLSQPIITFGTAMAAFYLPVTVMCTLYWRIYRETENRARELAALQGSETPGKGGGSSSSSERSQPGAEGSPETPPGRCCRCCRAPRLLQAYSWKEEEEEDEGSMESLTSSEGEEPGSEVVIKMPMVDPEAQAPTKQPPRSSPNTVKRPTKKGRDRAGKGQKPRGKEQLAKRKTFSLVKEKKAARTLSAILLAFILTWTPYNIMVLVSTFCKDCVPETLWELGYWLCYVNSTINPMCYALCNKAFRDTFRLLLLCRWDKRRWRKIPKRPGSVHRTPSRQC
Procedure: Baby hamster kidney cells stably expressing human or rat mAChR M1 to M5 were utilised for primary and selectivity profiling activities. mAChR M2 and M4 cell lines also stably expressed the chimeric Gαqi5 G-protein.
Human mAChR M1, M3, M5 and rat M1 cells were grown in low glucose Dulbecco's Modified Eagle's Medium (DMEM) medium plus heat inactivated 10% fetal bovine serum (HI FBS) and 500 μg/ml hygromycin B^1. Human mAChR M2 and M4 cells were maintained as above with^2 the addition of 500 μg/ml G418 to the media. Cells were maintained in culture at 37° C./5% CO2 and passaged twice weekly by treatment with 0.05% Trypsin/EDTA detachment solution, centrifugation (200 g, 5 min) and re-suspension in fresh media. Following cell expansion, cells were cryopreserved at −80° C. by treatment with 0.05% Trypsin/EDTA detachment solution, centrifugation (200 g, 5 min) and re-suspension of the pellet in freezing media (90% HI FBS/10% DMSO^3) at 15E6 cells/ml^4.
Prior to assaying, cells were prepared by thawing at 37° C. in a water bath, centrifugation (200 g, 5 min) and re-suspension of the pellet in fresh media. 15000 cells per well were seeded in black, clear bottomed 384-well Greiner Bio-One plates in plating medium (DMEM/10% HI FBS) and incubated overnight at 37C/5% CO2.
On the day of the assay, media was removed from each well and replaced with 500 assay buffer (HBSS with 20 mM HEPES and 2.5 mM Probenecid) containing the calcium indicator, Calcium 4 (Molecular Devices). Cells were then incubated at 37° C./5% CO2 for 30 min and at room temperature.
Compound preparation was carried out by generation of 11-point, 1 in 3 serial dilution concentration response curves in 100% DMSO. Compound was then diluted 1 in 65^6 with assay buffer (HBSS with 20 mM HEPES and 2.5 mM Probenecid) prior to the addition of 10 ul^7 to the cells using a Tetra fluorometric imaging plate reader (Molecular Devices)^8. Compound driven increases in intracellular calcium flux was measured as an increase in fluorescence (494Ex, 516Em)^9.
Following agonist data acquisition, cells were then incubated for a further 30 min at room temperature before either an EC20 concentration (to measure positive allosteric modulator activity) or an EC80 concentration (to measure antagonism) of carbachol was added using a fluorometric imaging plate reader. Positive allosteric modulator pEC50 values and antagonist pIC50 values for each compound were then determined. […] Data analysis was carried out using a 4 parameter logistic nonlinear regression model with the XLFIT (IDBS) excel add-in^10.
^1-10Examples 76-80 and 82-89 were tested in a slightly modified procedure. The points of modification and the alternate reagents, concentrations or equipment employed in these examples were: ^1200 μg/ml hygromycin B; ^2G418 not added; ^3CELLBANKER 1; ^410E6; ^540 μl; ^61 in 99; ^720 μl; ^8FDSS6000 (Hamamatsu Photonics); ^9(480Ex, 540Em); 10Spotfire (TIBCO).

male Crlj: WI rats = assay: Morris water maze test in ibotenic acid-induced learning disability model; type: in vivo, rat
Procedure: Ibotenic acid at 5 μg/0.5 μL was injected into both basal nuclei of 8-week old male Crlj: WI rats, and a Morris water maze test was performed 10-14 days after ibotenic acid injection. It has been reported that rats in which basal forebrain was lesioned by ibotenic acid injection show learning disability in the Morris water maze test. (Pharmacopsychiat, 1999, 32, 242-247). The test is considered a model of spatial learning and memory.
Learning trials were performed twice a day at an interval of 3 hours for 4 days (8 times in total), and probe trials were performed once the day after completion of the learning trials. Each test compound was dissolved in a 0.5% methylcellulose in water and orally administered 1 hour before the first trial on each day of the learning trials and 1 hour before the trial on the day of the probe trials. […]
In learning trials, the animal was put into water and goal latency and swimming distance to reach the platform were measured (measurement time: 90 seconds at the longest) by a video image behavioral analysis device (Etho Vision XT, Noldus Information Technology Inc.). […]
In probe trials, the platform was removed from the pool. The animal was put into water, and the swimming time in the quadrant where the platform had been located in the learning trials and the frequency of entry into the platform area where the platform had been located in the learning trials were measured by Etho Vision XT.
Each value was shown as an average and a standard error (n=10). The statistical significance between a control group and a vehicle group was analyzed by the independent t-test. The statistical significance between the vehicle group and each sample group was analyzed by one-way analysis of variance and then by Dunnett's multiple comparison test. […]

Compound | pEC50 for positive allosteric modulation (mAChR M1) | further results
O=C(N[C@H]1CCCCC[C@@H]1O)c1cn(Cc2ccc(F)cc2)c2cccnc12 (racemic) [Example 28, 1-(4-Fluorobenzyl)-N-(trans-2-hydroxycycloheptyl)-1H-pyrrolo[3,2-b]pyridine-3-carboxamide] | 6.6 | –
Cn1cnc(-c2ccc(Cn3cc(C(=O)N[C@H]4CCCC[C@@H]4O)c4ncccc43)cc2)c1 [Example 43, N-((1S,2S)-2-Hydroxycyclohexyl)-1-(4-(1-methyl-1H-imidazol-4-yl)benzyl)-1H-pyrrolo[3,2-b]pyridine-3-carboxamide] | 8.0 | –
N#Cc1ccc2c(n1)c(C(=O)N[C@H]1CCCC[C@@H]1O)cn2Cc1ccc(-n2cccn2)cc1 [Example 41, 1-(4-(1H-Pyrazol-1-yl)benzyl)-5-cyano-N-((1S,2S)-2-hydroxycyclohexyl)-1H-pyrrolo[3,2-b]pyridine-3-carboxamide] | 6.5 | –
Cc1ccnc2c(C(=O)N[C@H]3CCOC[C@@H]3O)cn(Cc3ccc(F)cc3)c12 (single isomer, unassigned) [Example 82, 1-(4-Fluorobenzyl)-N-(trans-3-hydroxytetrahydro-2H-pyran-4-yl)-7-methyl-1H-pyrrolo[3,2-b]pyridine-3-carboxamide] | 7.8 | –
O=C(N[C@@H]1CCCC[C@H]1O)c1cn(Cc2ccc(-c3ccc(F)cc3)cc2)c2cccnc12 (racemic) [Example 46, 1-((4′-Fluoro-[1,1′-biphenyl]-4-yl)methyl)-N-(trans-2-hydroxycyclohexyl)-1H-pyrrolo[3,2-b]pyridine-3-carboxamide] | 6.5 | –
COc1cc(Cn2cc(C(=O)N[C@H]3CCOC[C@@H]3O)c3nccc(C)c32)ccn1 (single isomer, unassigned) [Example 85, N-(trans-3-Hydroxytetrahydro-2H-pyran-4-yl)-1-((2-methoxypyridin-4-yl)methyl)-7-methyl-1H-pyrrolo[3,2-b]pyridine-3-carboxamide] | 7.3 | –
O=C(N[C@H]1CCCC[C@@H]1O)c1cn(Cc2ccc(F)cc2)c2cccnc12 [Example 5, 1-(4-Fluorobenzyl)-N-((1S,2S)-2-hydroxycyclohexyl)-1H-pyrrolo[3,2-b]pyridine-3-carboxamide] | – | Goal latency [mean ± SEM] (male Crlj: WI rats; Trial 1, 0.1 mg/kg p.o.): [90 ± 0.00] sec.; Goal latency [mean ± SEM] (male Crlj: WI rats; Trial 1, 0.3 mg/kg p.o.): [90 ± 0.00] sec.; Goal latency [mean ± SEM] (male Crlj: WI rats; Trial 2, 0.1 mg/kg p.o.): [90 ± 0.00] sec.
C[C@H]1COCC[C@@H]1NC(=O)c1cn(Cc2ccc(F)cc2)c2cccnc12 (racemic) [Example 19, 1-(4-Fluorobenzyl)-N-(trans-3-methyltetrahydro-2H-pyran-4-yl)-1H-pyrrolo[3,2-b]pyridine-3-carboxamide] | 6.0 | –
O=C(NC1CCCOC1)c1cn(Cc2ccc(-n3cccn3)cc2)c2cccnc12 (racemic) [Example 49, 1-(4-(1H-Pyrazol-1-yl)benzyl)-N-(tetrahydro-2H-pyran-3-yl)-1H-pyrrolo[3,2-b]pyridine-3-carboxamide] | 5.6 | –
